From US12421230B2, “Tricyclic heteroaryl compounds useful as IRAK4 inhibitors” (BRISTOL-MYERS SQUIBB COMPANY, priority 2020, dated 2025)
Where a name gives a salt, the structure may show the parent alone.

Each compound was assayed against T1, IRAK4 (Homo sapiens, UniProt Q9NWZ3) (assay: IRAK4 Inhibition Assay). Conditions: ATP 500 μM; fluoresceinated peptide 1.5 μM; IRAK4 0.6 nM; 60 min room temperature; Caliper LABCHIP.
T1 sequence (Q9NWZ3 1-460): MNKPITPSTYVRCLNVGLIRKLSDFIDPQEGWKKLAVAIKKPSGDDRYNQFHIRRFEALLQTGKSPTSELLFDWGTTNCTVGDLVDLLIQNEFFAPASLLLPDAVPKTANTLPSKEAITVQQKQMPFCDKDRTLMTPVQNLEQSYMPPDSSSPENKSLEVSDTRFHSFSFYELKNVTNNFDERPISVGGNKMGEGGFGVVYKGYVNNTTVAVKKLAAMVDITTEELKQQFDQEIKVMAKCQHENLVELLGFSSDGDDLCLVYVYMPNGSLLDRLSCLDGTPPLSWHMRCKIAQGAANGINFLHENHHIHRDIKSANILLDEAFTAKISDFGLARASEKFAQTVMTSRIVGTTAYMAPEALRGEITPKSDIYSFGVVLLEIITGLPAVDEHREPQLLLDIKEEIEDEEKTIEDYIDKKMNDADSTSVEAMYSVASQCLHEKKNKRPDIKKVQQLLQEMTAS
Format: biochemical
Procedure: The assays were performed in U-bottom 384-well plates. The final assay volume was 30 μL prepared from 15 μL additions of enzyme and substrates (fluoresceinated peptide and ATP) and test compounds in assay buffer (20 mM HEPES pH 7.2, 10 mM MgCl2, 0.015% Brij 35 and 4 mM DTT). The reaction was initiated by the combination of IRAK4 with substrates and test compounds. The reaction mixture was incubated at room temperature for 60 min. and terminated by adding 45 μL of 35 mM EDTA to each sample. The reaction mixture was analyzed on the Caliper LABCHIP® 3000 (Caliper, Hopkinton, MA) by electrophoretic separation of the fluorescent substrate and phosphorylated product. Inhibition data were calculated by comparison to no enzyme control reactions for 100% inhibition and vehicle-only reactions for 0% inhibition. The final concentrations of reagents in the assays are ATP, 500 μM; FL-IPTSPITTTYFFFKKK peptide 1.5 μM; IRAK4, 0.6 nM; and DMSO, 1.6%.

Row | IC50 [nM] | SMILES
1 | 37 | CC(C)Nc1c(C(=O)NC2CCCOC2)cnc2c1[nH]c1cc(C#N)ccc12 (stereo not shown) [Example 6, 7-cyano-4-(isopropylamino)-N-(tetrahydro-2H-pyran-3-yl)-5H-pyrido[3,2-b]indole-3-carboxamide]
2 | 170 | CC(C)Nc1c(C(=O)NCC2(CO)COC2)cnc2c1[nH]c1cc(C#N)ccc12 [Example 7, 7-cyano-N-((3-(hydroxymethyl)oxetan-3-yl)methyl)-4-(isopropylamino)-5H-pyrido[3,2-b]indole-3-carboxamide]
3 | 330 | CC(C)Nc1c(C(=O)NCC2(CO)CC2)cnc2c1[nH]c1cc(C#N)ccc12 [Example 8, 7-cyano-N-((1-(hydroxymethyl)cyclopropyl)methyl)-4-(isopropylamino)-5H-pyrido[3,2-b]indole-3-carboxamide]
4 | 330 | CC(C)Nc1c(C(=O)NCC(C)(C)CO)cnc2c1[nH]c1cc(C#N)ccc12 [Example 9, 7-cyano-N-(3-hydroxy-2,2-dimethylpropyl)-4-(isopropylamino)-5H-pyrido[3,2-b]indole-3-carboxamide]
5 | 27 | CC(C)Nc1c(C(=O)NC2CCOCC2)cnc2c1[nH]c1cc(C#N)ccc12 [Example 11, 7-cyano-4-(isopropylamino)-N-(tetrahydro-2H-pyran-4-yl)-5H-pyrido[3,2-b]indole-3-carboxamide]
6 | 310 | CC(C)Nc1c(C(=O)NC(CCO)C2CC2)cnc2c1[nH]c1cc(C#N)ccc12 (stereo not shown) [Example 16, 7-cyano-N-(1-cyclopropyl-3-hydroxypropyl)-4-(isopropylamino)-5H-pyrido[3,2-b]indole-3-carboxamide]
7 | 20 | CC(C)Nc1c(C(=O)NC2CCNCC2)cnc2c1[nH]c1cc(C#N)ccc12 [Example 19, 7-cyano (isopropylamino)-N-(piperidin-4-yl)-5H-pyrido[3,2-b]indole-3-carboxamide]
8 | 120 | CC(C)Nc1c(C(=O)N[C@H]2C[C@@H](O)C2)cnc2c1[nH]c1cc(C#N)ccc12 [Example 24, 7-cyano-N-((1s,3s)-3-hydroxycyclobutyl)-4-(isopropylamino)-5H-pyrido[3,2-b]indole-3-carboxamide]
9 | 33 | CC(C)(O)CCNC(=O)c1cnc2c([nH]c3cc(C#N)ccc32)c1N[C@@H]1CCOC1 [Example 26, (R)-7-cyano-N-(3-hydroxy-3-methylbutyl)-4-((tetrahydrofuran-3-yl)amino)-5H-pyrido[3,2-b] indole-3-carboxamide]
10 | 48 | CC(C)(O)CCNC(=O)c1cnc2c([nH]c3cc(C#N)ccc32)c1N[C@H]1CCOC1 [Example 28, (S)-7-cyano-N-(3-hydroxy-3-methylbutyl)-4-((tetrahydrofuran-3-yl)amino)-5H-pyrido[3,2-b]indole-3-carboxamide]
11 | 11 | C[C@H](Nc1c(C(=O)NCCC(C)(C)O)cnc2c1[nH]c1cc(C#N)ccc12)C1CC1 [Example 29, (S)-7-cyano-4-((1-cyclopropylethyl)amino)-N-(3-hydroxy-3-methylbutyl)-5H-pyrido[3,2-b]indole-3-carboxamide]
12 | 30.8 | CC(C)(O)CCNC(=O)c1cnc2c([nH]c3cc(C#N)ccc32)c1NCC1CC1 [Example 33, 7-cyano-4-((cyclopropylmethyl)amino)-N-(3-hydroxy-3-methylbutyl)-5H-pyrido[3,2-b] indole-3-carboxamide]
13 | 14 | CC(C)(O)CCNC(=O)c1cnc2c([nH]c3cc(C#N)ccc32)c1NCC(F)(F)F [Example 37, 7-cyano-N-(3-hydroxy-3-methylbutyl)-4-((2,2,2-trifluoroethyl)amino)-5H-pyrido[3,2-b]indole-3-carboxamide]
14 | 9.2 | CC(C)(O)CCNC(=O)c1cnc2c([nH]c3cc(C#N)ccc32)c1NC1COC1 [Example 41, 7-cyano-N-(3-hydroxy-3-methylbutyl) (oxetan-3-ylamino)-5H-pyrido[3,2-b]indole-3-carboxamide]
15 | 24 | N#Cc1ccc2c(c1)[nH]c1c(NC3COC3)c(C(=O)NCCC(F)(F)F)cnc12 [Example 42, 7-cyano-4-(oxetanylamino)-N-(3,3,3-trifluoropropyl)-5H-pyrido[3,2-b]indole-3-carboxamide]
16 | 33 | N#Cc1ccc2c(c1)[nH]c1c(NC3CC3)c(C(=O)N[C@H]3C[C@H](O)C3)cnc12 [Example 45, 7-cyano (cyclopropylamino)-N-((1R,3R)-3-hydroxycyclobutyl)-5H-pyrido[3,2-b]indole carboxamide]

Row | IC50 [nM] | SMILES
17 | 40 | CC(C)Nc1c(C(=O)N[C@H]2C[C@H](N)C2)cnc2c1[nH]c1cc(C#N)ccc12 [Example 47, N-((1R,3R)-3-aminocyclobutyl)-7-cyano (isopropylamino)-5H-pyrido[3,2-b]indole-3-carboxamide]
18 | 240 | CC(C)Nc1c(C(=O)NCCC(C)(C)O)cnc2c1[nH]c1cc(C(N)=O)ccc12 [Example 48, N3-(3-hydroxy-3-methylbutyl)-4-(isopropylamino)-5H-pyrido[3,2-b]indole-3,7-dicarboxamide]
19 | 22 | CC(=O)N[C@H]1C[C@H](NC(=O)c2cnc3c([nH]c4cc(C#N)ccc43)c2NC(C)C)C1 [Example 49, N-((1R,3R)-3-acetamidocyclobutyl)-7-cyano-4-(isopropylamino)-5H-pyrido[3,2-b]indole-3-carboxamide]
20 | 33 | COC(=O)N[C@H]1C[C@H](NC(=O)c2cnc3c([nH]c4cc(C#N)ccc43)c2NC(C)C)C1 [Example 50, methyl ((1R,3R)-3-(7-cyano-4-(isopropylamino)-5H-pyrido[3,2-b]indole-3-carboxamido)cyclobutyl)carbamate]
21 | 3.3 | CC(C)Nc1c(C(=O)NCCC(C)(C)N)cnc2c1[nH]c1cc(C#N)ccc12 [Example 52, N-(3-amino-3-methylbutyl)-7-cyano-4-(isopropylamino)-5H-pyrido[3,2-b]indole-3-carboxamide]
22 | 2.8 | CCNc1c(C(=O)NCCC2CCCNC2)cnc2c1[nH]c1cc(C#N)ccc12 (stereo not shown) [Example 55, 7-cyano-4-(ethylamino)-N-(2-(piperidin-3-yl)ethyl)-5H-pyrido[3,2-b]indole-3-carboxamide]
23 | 510 | COc1ccc(CNc2c(C(=O)NCCC(C)(C)O)cnc3c2[nH]c2cc(C#N)ccc23)cc1OC [Example 56, 7-cyano-4-((3,4-dimethoxybenzyl)amino)-N-(3-hydroxy-3-methylbutyl)-5H-pyrido[3,2-b]indole-3-carboxamide]
24 | 24 | CCNc1c(C(=O)NCCC2CCCCN2)cnc2c1[nH]c1cc(C#N)ccc12 (stereo not shown) [Example 58, 7-cyano-4-(ethylamino)-N-(2-(piperidin-2-yl)ethyl)-5H-pyrido[3,2-b]indole-3-carboxamide]
25 | 53 | CC(C)(O)[C@H](F)CNC(=O)c1cnc2c([nH]c3cc(C#N)ccc32)c1NC1CCN(S(C)(=O)=O)CC1 [Example 64, (R)-7-cyano-N-(2-fluoro-3-hydroxy-3-methylbutyl)-4-((1-(methylsulfonyl)piperidin-4-yl)amino)-5H-pyrido[3,2-b]indole-3-carboxamide]
26 | 100 | CC(C)Nc1c(C(=O)NCCc2nnn[nH]2)cnc2c1[nH]c1cc(C#N)ccc12 [Example 65, N-(2-(1H-tetrazol-5-yl)ethyl)-7-cyano-4-(isopropylamino)-5H-pyrido[3,2-b]indole-3-carboxamide]
27 | 30 | CC(C)Nc1c(C(=O)NC[C@@H](F)C(C)(C)O)cnc2c1[nH]c1cc(-c3cn[nH]c3)ccc12 [Example 67, (R)—N-(2-fluoro-3-hydroxy-3-methylbutyl)-4-(isopropylamino)-7-(1H-pyrazol-4-yl)-5H-pyrido[3,2-b]indole-3-carboxamide]
28 | 580 | CC(C)Nc1c(C(=O)NC[C@@H](F)C(C)(C)O)cnc2c1[nH]c1cc(-c3ccc(=O)[nH]c3)ccc12 [Example 68, (R)—N-(2-fluoro-3-hydroxymethylbutyl)-4-(isopropylamino)-7-(6-oxo-1,6-dihydropyridin-3-yl)-5H-pyrido[3,2-b]indole-3-carboxamide]
29 | 540 | CC(C)Nc1c(C(=O)NC[C@@H](F)C(C)(C)O)cnc2c1[nH]c1cc(C#N)cnc12 [Example 69, (R)-7-cyano-N-(2-fluoro-3-hydroxy-3-methylbutyl)-4-(isopropylamino)-5H-pyrrolo [3,2-b:4,5-b′]dipyridine-3-carboxamide]
30 | 1700 | CC(C)Cc1nc(-c2cnc3c([nH]c4cc(C#N)ccc43)c2NC(C)C)n[nH]1 [Example 70, 3-(5-isobutyl-1H-1,2,4-triazol-3-yl)-4-(isopropylamino)-5H-pyrido[3,2-b]indole-7-carbonitrile, TFA]
31 | 500 | CCCc1nc(-c2cnc3c([nH]c4cc(C#N)ccc43)c2NC(C)C)n[nH]1 [Example 71, 4-(isopropylamino)-3-(5-propyl-1H-1,2,4-triazol-3-yl)-5H-pyrido[3,2-b]indole carbonitrile]
